Results from US10787436B2, “Inhibitors of cyclin-dependent kinase 7 (CDK7)” (Dana-Farber Cancer Institute, Inc., priority 2012, dated 2020).

Legend:
CDK8/cyclin C = CDK8/cyclin C (Homo sapiens (Human), UniProt P49336); test: Life Technologies LanthaScreen Eu kinase assay, CDK8; format: binding; conditions: read-out: Calculated IC50, CDK8/cyclin C
CDK7 occupancy = test: CDK7 ChIP-seq in Jurkat cells; format: cell-based, human
Protocol: After the indicated treatment time, cells were crosslinked for 10 minutes at room temperature by the addition of one-tenth of the volume of 11% formaldehyde solution (11% formaldehyde, 50 mM Hepes (pH 7.3), 100 mM NaCl, 1 mM EDTA (pH 8.0), 0.5 mM EGTA (pH 8.0)) to the growth media followed by two washes with PBS. Following the final PBS wash, supernatant was aspirated, and the cell pellet was flash frozen in liquid nitrogen. Frozen crosslinked cells were stored at −80° C.
50 μl of Dynal magnetic beads (Sigma) were blocked with 0.5% BSA (w/v) in PBS. Magnetic beads were bound with 5 μg of the indicated antibody. Antibodies used are as follows: Total RNAP II (Rpb1 N-terminus): Santa Cruz sc-899; CDK7: Bethyl A300-405A. Crosslinked cells were lysed with lysis buffer 1 (50 mM Hepes (pH 7.3), 140 mM NaCl, 1 mM EDTA, 10% glycerol, 0.5% NP-40, and 0.25% Triton X-100) and washed with lysis buffer 2 (10 mM Tris-HCl (pH 8.0), 200 mM NaCl, 1 mM EDTA (pH 8.0) and 0.5 mM EGTA (pH 8.0)). […]
Illumina sequencing libraries were generated, and data were processed according to Lin et al., Cell (2012) 151:56-67. […] These criteria preserved only reads that mapped uniquely to the genome with 1 or fewer mismatches. […]

CDK5/p25 = CDK5/p25 (Homo sapiens (Human), UniProt Q00535); test: Life Technologies Z'-Lyte kinase assay, CDK5/p25; format: biochemical; conditions: read-out: Calculated IC50, CDK5/p25
[1] = system: retinal pigment epithelial (RPE1) cells; test: Anti-proliferative assay, cell titer glo, 72 hours; format: cell-based, human
Protocol: At indicated time points, cellular lysates were harvested at the indicated times points and immunoblotted for the indicated proteins. […] Anti-proliferative effects were determined using cell titer glo analysis. […] Anti-proliferative effects were determined using alamarBlue® analysis. […] Anti-proliferative effects were determined using cell titer glo analysis. […] Dose: i.v. 1 mg/kg and p.o. 10 mg/kg.
(§1) Proliferation assays were conducted over a 48-72 hour time period (as noted). […] Cancer cell line profiling was performed over a 72 time period using Alamar Blue reagent.
CDK7 inhibitors display strong antiproflierative effects in leukemia and lymphoma cancer cells. However, a better definition of the breadth of their therapeutic potential in other cell types has not been reported. […] The rationale for examining such a large panel of human cancer cell lines is based on the fact that there is substantial genetic heterogeneity among human tumor cells, even with the same histological origins. In general, the data reveal a bimodal distribution with cell lines displaying exquisite sensitivity or apparent complete insensitivity to the compound.

[2] = system: Jurkat and Loucy leukemia cell lines; test: Anti-proliferative effect, cell titer glo, 72 hours; format: cell-based
Protocol: Precipitated proteins were washed and probed for CDK7.
as §1
The phenylamino-pyrimidine (PAP) core scaffold is a “privileged” ATP-site directed pharmacophore with the most famous example being imatinib, a Bcr-Abl inhibitor approved to treat several cancers including Chronic Myelogenous Leukemia. Numerous PAP derivatives have been reported as potent inhibitors of various CDKs; however, efforts to achieve greater selectivity amongst the CDK family members have been hindered by the high sequence and structural similarity of CDKs. […] In an effort to explore broadly which CDKs might be targetable by a covalent inhibitor, a library of acrylamide-modified PAPs was built, and the library was subject to cell proliferation as well broad kinase selectivity profiling using the Kinativ chemical proteomics approach.

Hs863T = test: Proliferation assay, CellTiter-Glo, 72 hour; format: cell-based; conditions: Ewing's sarcoma cell line, read-out: Inhibition of proliferation, Hs863T
CDK1/cyclin B = CDK1/cyclin B (Homo sapiens (Human), UniProt P06493); test: Life Technologies Z'-Lyte kinase assay, CDK1; format: biochemical; conditions: read-out: Calculated IC50, CDK1/cyclin B
Chain of CDK1/cyclin B (P06493 whole entry): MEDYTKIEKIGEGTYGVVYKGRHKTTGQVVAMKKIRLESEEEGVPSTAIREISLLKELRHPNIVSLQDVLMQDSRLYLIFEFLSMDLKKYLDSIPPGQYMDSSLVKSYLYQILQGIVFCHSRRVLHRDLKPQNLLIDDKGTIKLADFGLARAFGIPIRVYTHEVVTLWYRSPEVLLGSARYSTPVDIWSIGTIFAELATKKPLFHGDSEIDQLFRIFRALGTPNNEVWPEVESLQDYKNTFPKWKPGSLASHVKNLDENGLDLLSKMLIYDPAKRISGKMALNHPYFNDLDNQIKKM
Chain of CDK1/cyclin B (P14635 whole entry partner): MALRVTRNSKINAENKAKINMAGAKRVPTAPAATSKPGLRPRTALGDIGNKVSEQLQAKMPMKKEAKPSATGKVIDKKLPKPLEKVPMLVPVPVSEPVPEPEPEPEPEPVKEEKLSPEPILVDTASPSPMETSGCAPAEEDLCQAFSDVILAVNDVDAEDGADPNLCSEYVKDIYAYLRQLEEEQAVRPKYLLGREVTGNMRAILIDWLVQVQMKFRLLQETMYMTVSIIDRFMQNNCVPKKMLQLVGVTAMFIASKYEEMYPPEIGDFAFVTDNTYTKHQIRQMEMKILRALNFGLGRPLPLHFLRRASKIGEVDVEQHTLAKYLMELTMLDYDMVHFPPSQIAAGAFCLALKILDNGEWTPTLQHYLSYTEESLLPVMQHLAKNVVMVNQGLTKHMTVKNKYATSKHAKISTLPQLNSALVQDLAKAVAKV

Chain of CDK5/p25 (Q00535 whole entry): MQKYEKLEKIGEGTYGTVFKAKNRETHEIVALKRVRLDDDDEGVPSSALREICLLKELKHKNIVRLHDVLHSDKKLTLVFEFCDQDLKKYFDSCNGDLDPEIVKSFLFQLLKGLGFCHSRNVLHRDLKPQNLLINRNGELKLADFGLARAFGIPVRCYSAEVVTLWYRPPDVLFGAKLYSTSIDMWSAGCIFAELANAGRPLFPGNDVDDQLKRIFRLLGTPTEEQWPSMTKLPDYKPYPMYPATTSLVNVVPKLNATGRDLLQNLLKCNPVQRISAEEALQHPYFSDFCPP
Chain of CDK5/p25 (Q15078 99-307 partner): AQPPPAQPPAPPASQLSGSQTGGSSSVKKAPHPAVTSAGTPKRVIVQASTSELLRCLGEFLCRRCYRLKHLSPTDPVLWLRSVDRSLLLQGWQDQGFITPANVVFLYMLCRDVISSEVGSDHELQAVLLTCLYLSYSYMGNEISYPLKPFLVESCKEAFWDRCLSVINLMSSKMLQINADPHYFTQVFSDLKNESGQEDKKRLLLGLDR
Chain of CDK8/cyclin C (P49336 whole entry): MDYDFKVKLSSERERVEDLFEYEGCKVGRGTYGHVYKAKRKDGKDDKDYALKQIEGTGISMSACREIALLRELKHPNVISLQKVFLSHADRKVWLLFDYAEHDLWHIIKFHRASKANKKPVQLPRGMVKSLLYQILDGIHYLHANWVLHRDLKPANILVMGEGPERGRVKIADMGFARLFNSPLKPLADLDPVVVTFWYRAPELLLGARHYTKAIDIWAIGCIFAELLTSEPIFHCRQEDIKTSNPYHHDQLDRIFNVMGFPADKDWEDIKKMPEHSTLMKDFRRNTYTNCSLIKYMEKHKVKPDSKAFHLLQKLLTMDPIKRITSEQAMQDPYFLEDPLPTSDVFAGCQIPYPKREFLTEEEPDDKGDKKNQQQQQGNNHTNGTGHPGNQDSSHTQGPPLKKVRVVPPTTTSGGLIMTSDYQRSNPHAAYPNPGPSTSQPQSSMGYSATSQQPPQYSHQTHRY
Chain of CDK8/cyclin C (P24863 whole entry partner): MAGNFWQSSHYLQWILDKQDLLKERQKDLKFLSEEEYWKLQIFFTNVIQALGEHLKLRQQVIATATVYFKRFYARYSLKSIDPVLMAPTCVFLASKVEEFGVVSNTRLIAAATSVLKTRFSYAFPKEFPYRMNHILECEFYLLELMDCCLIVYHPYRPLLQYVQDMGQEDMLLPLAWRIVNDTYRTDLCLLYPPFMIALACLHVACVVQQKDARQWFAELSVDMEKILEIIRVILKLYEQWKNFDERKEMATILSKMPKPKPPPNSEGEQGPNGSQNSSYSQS

CN(C)C/C=C/C(=O)Nc1ccc(C(=O)Nc2cccc(Nc3ncc(Cl)c(-c4c[nH]c5ccccc45)n3)c2)cc1 [Formula I-23]
IC50 (CDK8/cyclin C): ≥ 1000 nM | CDK7 occupancy (association with chromatin) (CDK7 occupancy): did not disrupt CDK7 occupancy | IC50 (CDK5/p25): 100 to 1000 nM | Sensitivity of untransformed RPE1 cells [1]: largely resistant | Inhibition of proliferation of Jurkat and Loucy leukemia cell lines [2]: potently inhibits proliferation | IC50 (Hs863T): 500 to 5000 nM | IC50 (CDK1/cyclin B): 100 to 1000 nM
